In patent US10245255B2, “Compositions and methods for the treatment of obesity and related disorders” (THE REGENTS OF THE UNIVERSITY OF MICHIGAN, priority 2011, dated 2019):
“Also recorded” adds a separate entry of the source.

How the values were obtained:
[1] = Ob/ob mice: liver mRNA levels; format: in vivo; conditions: 100 mg/kg for 14 weeks, vs vehicle
Method: (§1) Particular physiological tests were used during the development of the technology provided herein. For example, in some of the experiments described below, subjects were tested for tolerance of injected glucose and insulin according to the methods described in Chiang et al. (“The protein kinase IKKepsilon regulates energy balance in obese mice”, Cell (2009) 138: 961-975, incorporated herein by reference in its entirety for all purposes). In some of the experiments described below, subjects were tested for tolerance of oral glucose. In particular, mice were fasted for 6 hours before the studies. For ob/ob mice, 1.0-1.5 mg/g of glucose was gavaged into mice, and blood glucose was measured with a glucometer (e.g., OneTouch Ultra glucometer). Measurement of triglycerides, mRNA, and cytokines were performed according to the methods described in Chiang et al. (The protein kinase IKKepsilon regulates energy balance in obese mice. Cell (2009) 138: 961-975).
(§2) Mouse tissues were isolated, rinsed in Phosphate Buffered Saline (PBS), frozen in liquid nitrogen and stored at −80° C. until extraction. Total RNA was extracted from Liver, WAT and BAT tissues as well as differentiated 3T3-L1 cells using the RNeasy Lipid Tissue Kit (Qiagen, Valencia, Calif.) according to the manufacturer's instructions with the inclusion of a DNase digestion step. Total RNA was extracted from BMDM and SVF cells using the RNeasy Kit (Qiagen, Valencia, Calif.) with a DNase step. The Superscript First-Strand Synthesis System for RTPCR (Invitrogen, Grand Island, N.Y.) was used with random primers for reverse transcription. Realtime PCR amplification of the cDNA was performed on samples in triplicate with Power SYBR Green PCR Master Mix (Applied Biosystems, Carlsbad, Calif.) using the Applied Biosystems 7900HT Fast Realtime PCR System. […] Data was analyzed using the 2-ΔΔCT method, and statistical significance was determined using the unpaired heterocedastic Student's t-test with one averaged sample value per mouse.

[2] = High fat diet prevention group: body weight and food intake; format: in vivo, C57BL/6 mice
Method: (§3) Wild type male C57BL/6 mice were fed a high fat diet consisting of 45% of calories from fat (D12451 Research Diets Inc., New Brunswick, N.J.) starting at 8 weeks of age for 12-24 weeks, while normal diet C57BL/6 controls were maintained on normal chow diet consisting of 4.5% fat (5002 Lab Diet, Philadelphia, Pa.). Diets containing ω-3 fatty acids were fed as previously described 24. Rosiglitazone treatment was administered for three weeks by addition of the compound to the diet in mice that had been on HFD for 16 weeks. Each mouse consumed on average 3.5 mg/kg rosiglitazone per day. Amlexanox was administered by daily oral gavage. […] Animals were housed in a specific pathogen-free facility with a 12-hour light/12-hour dark cycle and given free access to food and water. All animal use was in compliance with the Institute of Laboratory Animal Research Guide for the Care and Use of Laboratory Animals and approved by the University Committee on Use and Care of Animals at the University of Michigan and UCSD.
The remaining weight of food provided was determined daily for singly housed mice. Daily food consumption was calculated from a three-day average.

[3] = Ob/ob mice: insulin tolerance test; format: in vivo; conditions: 100 mg/kg, 8-week period
Method: as §1
For glucose tolerance tests, after a six-hour fast mice were orally gavaged with glucose at a dose of 1.5 g/kg (C57BL/6 mice) or 1.2 g/kg (ob/ob mice). […] Blood glucose was measured at basal, 15, 30, 45, 60, 90, 120 and 180 minutes from tail blood using the One Touch Ultra glucometer (Lifescan, Milpitas, Calif.).

[4] = Ob/ob mice: adipose tissue histology and mRNA levels; format: in vivo
Method: (§4) Tissues were fixed in formalin for 3 days. Histology was performed by the University of Michigan Cancer Center Research Histology Laboratory.
as §2

[5] = test system: 3T3-L1 adipocytes; assay: 3T3-L1 adipocytes: phosphorylation (immunoblot) and lipolysis; format: cell-based
Method: 3T3-L1 fibroblasts (American Type Culture Collection, Manassas, Va.) were cultured and differentiated using standard methods known in the art. […] 3T3-L1 adipocytes were serum starved with 0.5% fetal bovine serum (FBS) in Dulbecco's modified eagle medium (DMEM) prior to treatment. TNFα treatments (50 ng/mL unless otherwise noted) were performed during the 24 hour prior to harvest, after pretreatment with IKKβ inhibitor compound VIII (EMD Biosciences, Philadelphia, Pa.) for 1 hour where indicated. […] Cells were treated with or without 10 nM of insulin for 15 minutes. RAW264.7 cells were serum starved with 0.5% FBS DMEM media and pre-treated with or without Cay-10576 (Cayman Chemical, Ann Arbor, Mich.). The cells were then treated with LPS (0.5 μg/ml) or poly I:C (50 μg/ml) for 1 hour. Cells were harvested for total RNA and analyzed by real-time PCR Cell lysates were resolved on SDS-PAGE and analyzed by immunoblot using the indicated antibodies.

[6] = Diet-induced obese mice: liver weight, triglyceride, glycogen, histology; format: in vivo, C57BL/6 mice
Method: as §3
Liver lipids were isolated as previously described (Norris et. Al. 2003) and the triglyceride levels were measured by Triglyceride Reagent kit.
Determination of glycogen in liver was performed as follows. Briefly, liver tissue was digested in a 30% potassium hydroxide solution, and then glycogen was precipitated using ethanol. After three washes to remove any traces of glucose, glycogen was digested by addition of amyloglucosidase. Released glucose was quantified using a colorimetric kit (Wako, Richmond, Va.).
as §4

[7] = cells chronically treated with TNFα
[8] = diet induced obese mice, 25 mg/kg for 8 weeks

CC(C)c1ccc2oc3nc(N)c(C(=O)O)cc3c(=O)c2c1 [amlexanox, 2-amino-7-isopropyl-5-oxo-5H-chromeno[2,3-b]pyridine-3-carboxylic acid]
liver mRNA level, Cd11c [1]: reduced
liver mRNA level, F4/80 [1]: reduced
liver mRNA level, IL-10 [1]: reduced
liver mRNA level, MIP1α [1]: reduced
liver mRNA level, Rantes [1]: reduced
liver mRNA level, TNFα [1]: reduced
liver mRNA level, acetyl CoA carboxylase (ACC) [1]: reduced
liver mRNA level, fatty acid synthase (FAS) [1]: reduced
liver mRNA level, stearyl CoA desaturase (SCD1) [1]: reduced
body weight compared with control diet mice ([2]; 45% fat diet, 25 or 100 mg/kg, throughout 12 weeks): maintained weights equivalent to those of control diet mice
weight gain produced by high-fat diet ([2]; 45% fat diet, daily gavage, either dose 25 or 100 mg/kg): prevented the weight gain
weight gain after switching to 60% fat diet ([2]; both doses 25 and 100 mg/kg, after 12 weeks on 45% fat diet): prevented substantial weight gain
insulin sensitivity (responsiveness to injected insulin) [3]: dramatically improved
expression of Glut4 in WAT ([4]; 100 mg/kg): Increased expression
expression of PPARγ in WAT ([4]; 100 mg/kg): Increased expression
adipose tissue mRNA level, CD11c ([4]; 100 mg/kg for 12 weeks): marked reduction
adipose tissue mRNA level, F4/80 ([4]; 100 mg/kg for 12 weeks): marked reduction
adipose tissue mRNA level, IL-10 ([4]; 100 mg/kg for 12 weeks): marked reduction
adipose tissue mRNA level, MCP-1 ([4]; 100 mg/kg for 12 weeks): marked reduction
adipose tissue mRNA level, MIP1α ([4]; 100 mg/kg for 12 weeks): marked reduction
adipose tissue mRNA level, Rantes ([4]; 100 mg/kg for 12 weeks): marked reduction
adipose tissue mRNA level, TNFα ([4]; 100 mg/kg for 12 weeks): marked reduction
infiltration of inflammatory macrophages in adipose tissue (H & E) ([4]; 100 mg/kg for 12 weeks, epididymal fat): markedly reduced
basal lipolytic rate (glycerol release) [5]: increased
poly I:C-stimulated phosphorylation of IRF3 (serine 396) ([5]; 1 hour pre-treatment, 20 μg/ml poly I:C): blocked; also recorded: inhibition
down regulation of PPARγ produced by TNFα [5, 7]: did not affect
forskolin stimulated hormone sensitive lipase phosphorylation (serine 660) [5, 7]: restored; also recorded: partially restores
phosphorylation of TBK1 at serine 172 in TNFα-treated cells [5, 7]: restored
phosphorylation of TBK1 on serine 172 ([5]; two-fold serial dilution, highest concentration 50 μM, with and without poly I:C): increased phosphorylation; also recorded: induction
reductions in hepatic lipids after mice were taken off drug ([6]; continued on high fat diet, stained tissue sections): reversed
large lipid droplets in liver (H & E staining) [6, 8]: largely disseminated
reduction in liver weight [6, 8]: greater than 20%
hepatic glycogen levels ([6]; diet induced obese mice, 25 mg/kg for 8 weeks, vs control HFD mice): lower
reduction of triglyceride content in liver ([6]; diet induced obese mice, 25 mg/kg for 8 weeks, vs vehicle): more than 50%
